According to US20240082416A1, “AMATOXIN ANALOGS AND USES THEREOF” (THE UNIVERSITY OF BRITISH COLUMBIA, priority 2020, published 2024):
Several values for one entry are separate records, joined by “and”; a condition that tells them apart may be missing. Equal values may be shown once. Starred links: 1 amine or outer side, 2 acyl side, 3 side chain; linkers in the order of their positions; H or OH if unused. Positions of bridges follow the written chain, without caps; N, C: chain ends. Non-standard residues stand in square brackets, D forms with d. Residues, ends and D or L forms follow the SMILES beside them. Trp(2-yl) = O=C([C@H](Cc1c([*:3])[nH]c2ccccc12)N[*:1])[*:2]; Pro(4R-SH) = O=C([C@@H]1C[C@@H](S[*:3])CN1[*:1])[*:2]; Ile(4R-OH,5-OH) = C[C@H]([C@H](N)C(=O)O)[C@@H](O)CO; Pro(4R-NH2) = N[C@H]1CN[C@H](C(=O)O)C1

Columns and labels:
Pol II = biological target: T1, Pol II (Homo sapiens, UniProt P24928); experiment: In vitro transcription runoff assay using HeLaScribe nuclear extract; type: biochemical; conditions: for Transcription activity E (%): mean ± standard deviation
T1 construct: HeLaScribe® nuclear extract containing Pol II and all other transcription factors; purchased Promega; host or cells: HeLa nuclear extract (endogenous protein)
Text: (h) In vitro transcription assay of synthetic amanitins containing analogs of Hyp: Primers were purchased from IDT via standard phosphoramidite chemistry. dNTP and rNTP were purchased from Thermofisher. GoTaq polymerase and HeLaScribe*Nuclear Extract in vitro Transcription System was purchased from Promega. Taq polymerase was purchased from NEB. [^32P] α-dGTP (3000 Ci/mmol 10 mCi/ml EasyTide) and [^32P] α-GTP (3000 Ci/mmol 10 mCi/ml EasyTide) were purchased from Perkin Elmer. QIAquick PCR purifcation kit was purchased from Qiagen. AcGFP1-N1 was a gift (Addgene plasmid #54705; http://n2t.net/addgene:54705; RRID:Addgene_54705). DNA Primer sequences were:
The DNA template for transcription runoff was synthesized by PCR with template pAcGFP-N1, and primers P1 and P2. To a final volume of 20 μL, 1 x GoTaq Buffer, 250 μM of each dNTP, 500 nM of each primers P1 and P2, […] pAcGFP-N1 and 0.05 U/μL GoTaq were employed to thermocycle for 30 cycles (30 s at 95° C., 30 s at 50° C. and 60 s at 72° C., Bio-Rad). A 1 μL aliquot of the amplified solution was resolved with 6×DNA loading dye in a 1% agarose gel containing […] and then visualized using GelDoc XR imager (Bio-Rad). Purification was completed via QIAquick PCR purification kit (Qiagen). The radioactive chromatographic standard was synthesized by PCR with template pAcGFP-N1, and primers P3 and P4. To a final volume of 50 μL, 1 x Thermopol Buffer, 200 μM of each dNTP, 500 nM of each primers P3 and P4, 10 pg/μL pAcGFP-N1 and 0.02 U/μL Vent polymerase, 1 μL [^32P] α-dGTP were employed to thermocycle for 30 cycles (30 s at 95° C., 30 s at 62° C. and 30 s at 72° C., Bio-Rad). A 1 μL aliquot of the amplified solution was resolved with 6×DNA loading dye in 8% denaturing PAGE and then visualized by autoradiography via the Typhoon 9200 imager (Molecular namics-Amersham-GE). Purification was completed via QIAquick PCR purification kit (Qiagen). The transcription runoff assay was modified from HeLaScribe® Nuclear Extract in vitro Transcription System (Promega). […]. The pellet was resolved by 8% denaturing PAGE and then visualized by autoradiography via the Typhoon 9200 imager (Molecular dynamics-Amersham-GE). Dosimetry was calculated by ImageJ, and the 3 parameter logistic fit was completed by Origin 2019 (OriginLab). […]
All data were presented in mean±standard deviation (n=3).

CHO cells = experiment: Viability assay against CHO cells (MTT colorimetric assay); type: cell-based, Chinese hamster; conditions: 72 h, replicates n = 1, 2, 3
Description: (§1) (f) Cell culture: Cells were cultured in Minimum Essential Medium Eagle—Alpha Modification (α-MEM) or […] Dulbecco's Modified Eagle Medium (DMEM), purchased from Gibco. […] All cell culture plastic ware was obtained from Coming or Falcon. Cells were cultured at 37° C. in a humidified chamber with 5% CO2. When used in cell culture, DMSO was purified by filtration through a […] filter. All experiments were carried out in a laminar flow culture cabinet, unless otherwise noted.
(§2) Immortalized CHO cells had been stored in liquid nitrogen. To revive cells, a 1-mL tube of the frozen cells in medium containing 10% DMSO was warmed in a 30° C. water bath and diluted with 9 mL of fresh media. Media contained 10% FBS and 100 U/mL penicillin and […] streptomycin, unless otherwise indicated. The cells were incubated in a T-25 flask at 37° C. at 5% CO2. After 24 hours, the medium was aspirated and replaced with fresh medium. When cells reached a level of 90-100% confluence, they were sub-cultured. […] Once the cells were detached from the tissue culture flask, 3-5 mL media was added to quench the trypsin and the mixture was transferred to a 10 mL centrifuge tube. The mixture was centrifuged for 5 min at […], and the supernatant was discarded. The cells were suspended in fresh medium, diluted as required, and transferred to a new culture flask.
(§3) To assay cell viability, a nearly confluent tissue culture flask was trypsinized, and the cells were counted following treatment with Trypan blue, using a hemocytometer. The cells were then diluted to the appropriate stock concentrations in fresh medium and transferred in 100 μL to a 96-well plate using a multi-channel pipette. The number of cells plated varied from experiment to experiment. These were incubated at 37° C. and 5% CO2 for a 24-hour period to allow for adherence. The medium was aspirated, and fresh medium was added, which contained the desired additives in DMSO. The cells were then re-incubated for 72 h. At the completion of the experiment, a 100 μL aliquot of 25 mg/mL MTT in phosphate-buffered saline (PBS) was added to each well. The plate was incubated three hours further to allow for the formation of the formazan product in viable cells. The media was carefully aspirated, and the purple product was solubilized in DMSO. […] Data was processed in Microsoft Excel and GraphPad Prism. Experiments were performed in triplicates unless otherwise noted, and the error bars were calculated as the standard error of the mean.
(§4) Each cell line was plated in a 96-well plate, with 100 μL of the stock solution per well (5000 cells per well) and incubated for 24 hours. […] The cells were incubated for 72 hours, at which point viability was assessed as described.

[1] = as above; type: cell-based, Chinese hamster; conditions: Chinese hamster, CHO cells, 72 h, replicates n = 1, 2, 3, read-out: % viable cells; for viability at 72 h, 1e-05 M: 1e-005 M; for viability at 72 h, 1.25e-06 M: 1.25e-006 M; for viability at 72 h, 1.56e-07 M: 1.56e-007 M; for viability at 72 h, 2e-05 M: 2e-005 M; for viability at 72 h, 2.5e-06 M: 2.5e-006 M; for viability at 72 h, 3.125e-07 M: 3.125e-007 M; for viability at 72 h, 5e-06 M: 5e-006 M; for viability at 72 h, 6.25e-07 M: 6.25e-007 M; for viability at 72 h, 7.8e-08 M: 7.8e-008 M
Description: as §1, §2, §3, §4

[2] = IC50 (nM), Table 11, 3 parameter logistic fit
[3] = IC50 (nM), Table 12, n = 3, high values estimated from activity at [I]=1.0 μM

SMILES | Transcription activity E (%) (Pol II; 30 nM) | Transcription activity E (%) (Pol II; 100 nM) | Transcription activity E (%) (Pol II; 300 nM) | Transcription activity E (%) (Pol II; 1000 nM) | IC50 (Pol II; IC50) [nM] | IC50 (Pol II; [2]) [nM] | IC50 (Pol II; [3]) [nM] | viability at 72 h, 1e-05 M [1] [%] | viability at 72 h, 1.25e-06 M [1] [%] | viability at 72 h, 1.56e-07 M [1] [%] | viability at 72 h, 2e-05 M [1] [%] | viability at 72 h, 2.5e-06 M [1] [%] | viability at 72 h, 3.125e-07 M [1] [%] | viability at 72 h, 5e-06 M [1] [%] | viability at 72 h, 6.25e-07 M [1] [%] | viability at 72 h, 7.8e-08 M [1] [%] | other results
CC[C@H](C)[C@@H]1NC(=O)CNC(=O)[C@@H]2Cc3c([nH]c4ccccc34)SC[C@H](NC(=O)CNC1=O)C(=O)N[C@@H](CC(N)=O)C(=O)N1C[C@H](S)C[C@H]1C(=O)N[C@@H]([C@@H](C)[C@@H](O)CO)C(=O)N2 [Compound 5, SH-Pro-amanitin] (cyclo(CN[Pro(4R-SH)][Ile(4R-OH,5-OH)][Trp(2-yl)]GIG); thioether 1-5) | 99.6 ± 11.6 | 91.2 ± 18.5 | 71.2 ±19.0 | 50.3 ± 20.8 | 910 ± 230 | 910 ± 330 | 910 ± 330 | 94 | 93 | 93 | 106 | 91 | 94 | 100 | 98 | 94 | Transcription activity E (%) (Pol II; 10 nM): 78.5 ± 26.6%; % viable cells (CHO cells; 1e-005 M, listed as SH-Pro-amanitin (5)): 95%; % viable cells (CHO cells; 1.25e-006 M, listed as SH-Pro-amanitin (5)): 92%; % viable cells (CHO cells; 2e-005 M, listed as SH-Pro-amanitin (5)): 97%; % viable cells (CHO cells; 2.5e-006 M, listed as SH-Pro-amanitin (5)): 99%; % viable cells (CHO cells; 3.125e-007 M, listed as SH-Pro-amanitin (5)): 90%; % viable cells (CHO cells; 5e-006 M, listed as SH-Pro-amanitin (5)): 90% and 96%; % viable cells (CHO cells; 6.25e-007 M, listed as SH-Pro-amanitin (5)): 92% and 95%; % viable cells (CHO cells; 7.8e-008 M, listed as SH-Pro-amanitin (5)): 89%
CC[C@H](C)[C@@H]1NC(=O)CNC(=O)[C@@H]2Cc3c([nH]c4ccccc34)SC[C@H](NC(=O)CNC1=O)C(=O)N[C@@H](CC(N)=O)C(=O)N1C[C@H](N)C[C@H]1C(=O)N[C@@H]([C@@H](C)[C@@H](O)CO)C(=O)N2 [Compound 6, NH2-Pro-amanitin] (cyclo(CN[Pro(4R-NH2)][Ile(4R-OH,5-OH)][Trp(2-yl)]GIG); thioether 1-5) | 91.7 ± 9.3 | 82.3 ± 12.8 | 55.0 ± 23.6 | 38.6 ± 18.3 | 550 ± 90 | 550 ± 90 | 550 ± 90 | 91 | 95 | 95 | 92 | 86 | 86 | 87 | 92 | 96 | Transcription activity E (%) (Pol II; 3000 nM): 19.8 ± 9.9%; % viable cells (CHO cells; 1e-005 M, listed as NH2-Pro-amanitin (6)): 81% and 83%; % viable cells (CHO cells; 1.25e-006 M, listed as NH2-Pro-amanitin (6)): 88%; % viable cells (CHO cells; 1.56e-007 M, listed as NH2-Pro-amanitin (6)): 97%; % viable cells (CHO cells; 2e-005 M, listed as NH2-Pro-amanitin (6)): 89% and 85%; % viable cells (CHO cells; 2.5e-006 M, listed as NH2-Pro-amanitin (6)): 85% and 82%; % viable cells (CHO cells; 5e-006 M, listed as NH2-Pro-amanitin (6)): 79% and 84%; % viable cells (CHO cells; 6.25e-007 M, listed as NH2-Pro-amanitin (6)): 85%; % viable cells (CHO cells; 7.8e-008 M, listed as NH2-Pro-amanitin (6)): 89%
